From patent US20230247987A1, “THE USE OF SAFENERS TO IMPROVE TOLERANCE OF ACCASE TOLERANT SORGHUM CROP TO HERBICIDES” (Adama Agan Ltd., priority 2020, published 2023) come the findings set out here.

Common to all, as to format: in vivo
One data set deals with Panicum miliace. The experiment in a line: Field trials: control of Panicum miliace.
The test system of a further data set is Setaria viridis. The experiment in a line: Field trials: control of Setaria viridis.
The subject of data set [1] is shattercane (Sorghum bicolor). The experiment in a line: Field trial: control of shattercane. The conditions noted are these: after 7 days.
For data set [2], the system named is ACCase tolerant sorghum variety BTX430-CHR-ACC1. Description: Greenhouse crop response of ACCase tolerant sorghum to quizalofop with and without isoxadifen. The conditions noted are these: FIG. 1, X-rates 0.5-8 (Quizalofop 39-616 g/ha, Isoxadifen 27-431 g/ha), rated approximately 14 days after application, versus quizalofop without isoxadifen. An excerpt: Seeds of the proprietary ACCase tolerant sorghum variety BTX430-CHR-ACC1 (ATCC deposit PTA-125106, mutation W1999C) were supplied by S&W. BTX430-CHR-ACC1 sorghum cultivar contains a single mutation in the ACCase gene that confers ACCase tolerance: Tryptophan to Cysteine amino acid substitution at an amino acid position 1999 (W1999C; SEQ ID NO: 7 as disclosed in WO 2018/222715, namely the sequence denoted herein by SEQ ID NO: 6) aligning with the amino acid sequence of SEQ ID NO: 6 (as disclosed in WO 2018/222715, namely the sequence denoted herein by SEQ ID NO: 5). The mutation provides tolerance to quizalofop.
ACCase tolerant Sorghum seeds (S & W Line ID: T19-90001) were planted in commercial greenhouse soil mix in ˜8-cm square pots.
Plants were started in a greenhouse and placed outdoors at ambient air temperatures when temperatures were conducive to sorghum growth.
Soil fertility and moisture were provided on an as needed basis.
Plants were grown to heights of 10 to 13, 15-18, 20 to 25 and 30 to 35 cm for treatment.
Safener was premixed in the ADM.7000.H.2.A formulation.
Sorghum plants were subjected to “Standard Weed Science Percentage Rankings” where 0=no effect of the herbicide and 100%=complete plant death. Injury represents discoloration, stunting and malformation. Ratings were taken approximately 14 days after herbicide application. […]

Where [3] appears, read: Table 4 trial, after 33 days, X-rate 0.5: Quizalofop 5 oz/a, Isoxadifen 5 oz/a or none.
The mark [4] stands for this setting: Table 4 trial, after 33 days, X-rate 1: Quizalofop 10 oz/a, Isoxadifen 10 oz/a or none.
[5] abbreviates: Table 4 trial, after 33 days, X-rate 2: Quizalofop 20 oz/a, Isoxadifen 20 oz/a or none.
Where [6] appears, read: Table 5 second trial, after 27 days, X-rate 0.5: Quizalofop 5 oz/a, Isoxadifen 5 oz/a or none.
[7] abbreviates: Table 5 second trial, after 27 days, X-rate 1: Quizalofop 10 oz/a, Isoxadifen 10 oz/a or none.
Where [8] appears, read: Table 5 second trial, after 27 days, X-rate 2: Quizalofop 20 oz/a, Isoxadifen 20 oz/a or none.

In the case of `CCOC(=O)[C@@H](C)Oc1ccc(Oc2cnc3cc(Cl)ccc3n2)cc1` [Quizalofop, quizalofop P-ethyl], the “% control Panicum miliace” value in the data set on Panicum miliace (setting [3]), with Panicum miliace (setting [4]), in the data set on Panicum miliace (setting [5]), in the data set with Panicum miliace (setting [6]), in the data set with Panicum miliace (setting [7]) and in the data set with Panicum miliace (setting [8]) was 100% throughout. In addition, the “% control Setaria viridis” value in the data set with Setaria viridis (setting [3]), in the data set on Setaria viridis (setting [4]), in the data set with Setaria viridis (setting [5]), in the data set with Setaria viridis (setting [6]), with Setaria viridis (setting [7]) and with Setaria viridis (setting [8]) was 100% in each case. The “% control Shattercane” value was 96.8% in data set [1] (X-rate 0.5: Quizalofop 5 oz/a, Isoxadifen 5 oz/a or none); 96.8% in data set [1] (X-rate 1: Quizalofop 10 oz/a, Isoxadifen 10 oz/a or none); 99% in data set [1] (X-rate 2: Quizalofop 20 oz/a, Isoxadifen 20 oz/a or none).
Regarding `O=C(O)C1=NOC(c2ccccc2)(c2ccccc2)C1` [isoxadifen], in data set [2], the “crop response (percentage of sorghum crop displaying phytotoxicity) against the X-Rate” value was “significant decrease of crop response”.
